In brackets after ≈: the same amount, converted by molar mass. Activity calls are given as the source filed them. The calls are words filed in the database; no cut-off is given here.

Test [1] relates to Botrytis cinerea. Briefly: Fungicidal activity against Botryotinia fuckeliana grown on PDA medium assessed as inhibition of mycelial growth incubated for 4 to 7 days at 25 degC in presence of 10 mg/L mitochondrial alternative oxidase inhibitor, SHAM. The test is classed as functional, organism-based.
Test [2] has as its system Botrytis cinerea. The experiment in a line: Fungicidal activity against Botryotinia fuckeliana grown in liquid medium assessed as inhibition of mycelial growth at 80 mg/L after 12 hr. The test is classed as functional, organism-based.
In test [3] the test system is Botrytis cinerea. Briefly: Depletion of total adenylate pool in Botryotinia fuckeliana mycelium at 80 mg/L after 24 to 48 hr by reverse phase HPLC analysis. The test is classed as functional, organism-based.
The test system of test [4] is Botrytis cinerea. The experiment in a line: Fungicidal activity against Botryotinia fuckeliana grown in liquid medium assessed as inhibition of mycelial growth after 24 hr. The test is classed as functional, organism-based.
Test [5] relates to Botrytis cinerea. Briefly: Fungicidal activity against Botryotinia fuckeliana grown on YgA medium assessed as inhibition of mycelial growth incubated for 4 days in the dark at 25 degC in presence of fermentable carbon source, glucose. The test is classed as functional, organism-based. The settings on record: 96 h.
The test system of test [6] is Botrytis cinerea. The experiment in a line: Depletion of ATP content in Botryotinia fuckeliana mycelium at 80 mg/L after 24 to 48 hr by reverse phase HPLC analysis. The test is classed as functional, organism-based.
The subject of test [7] is Botrytis cinerea. The experiment in a line: Inhibition of respiratory activity in Botryotinia fuckeliana mycelium assessed as decrease in rate of oxygen consumption at 100 mg/L by Clark-type oxygen electrode recording analysis in presence of succinate (reference value: 0%). The test is classed as functional.
In test [8] the test system is Botrytis cinerea. The experiment in a line: Induction of respiratory activity in Botryotinia fuckeliana mycelium assessed as rate of oxygen consumption at 10 mg/L after 2 min by Clark-type oxygen electrode recording analysis. The test is classed as functional.
The subject of test [9] is Botrytis cinerea. Briefly: Fungistatic activity against Botryotinia fuckeliana grown in liquid medium assessed as increase in mycelium dry weight at 80 mg/L incubated for 24 hr prior to transferring mycelium to drug-free MYS medium measured after 12 hr. The test is classed as functional.
Test [10] deals with Botrytis cinerea. Briefly: Fungicidal activity against Botryotinia fuckeliana grown on YGA medium assessed as inhibition of mycelial growth incubated for 4 days in the dark at 25 degC in presence of non-fermentable carbon source, glycerol. Particulars: 96 h. The test is classed as functional, organism-based.
In test [11] the test system is Botrytis cinerea. The experiment in a line: Inhibition of respiratory activity in Botryotinia fuckeliana mycelium assessed as rate of oxygen consumption at 100 mg/L after 2 min by Clark-type oxygen electrode recording analysis. The test is classed as functional.
In test [12] the test system is Botrytis cinerea. Briefly: Inhibition of respiratory activity in Botryotinia fuckeliana mycelium assessed as rate of oxygen consumption at 100 mg/L by Clark-type oxygen electrode recording analysis in presence of succinate and 2 mM mitochondrial alternative oxidase inhibitor, SHAM. The test is classed as functional.
Test [13] relates to Botrytis cinerea. Briefly: Inhibition of respiratory activity in Botryotinia fuckeliana mycelium assessed as rate of oxygen consumption at 100 mg/L by Clark-type oxygen electrode recording analysis in presence of glucose and 2 mM mitochondrial alternative oxidase inhibitor, SHAM. The test is classed as functional.
Test [14] deals with Botrytis cinerea. The experiment in a line: Depletion of ATP content in Botryotinia fuckeliana mycelium at 80 mg/L after 6 hr by reverse phase HPLC analysis. The test is classed as functional.
The test system of test [15] is Botrytis cinerea. The experiment in a line: Inhibition of respiratory activity in Botryotinia fuckeliana mycelium assessed as decrease in rate of oxygen consumption at 100 mg/L by Clark-type oxygen electrode recording analysis in presence of glucose (reference value: 0%). The test is classed as functional.
In test [16] the test system is Botrytis cinerea. Briefly: Fungistatic activity against Botryotinia fuckeliana grown in liquid medium assessed as increase in mycelium dry weight at 80 mg/L incubated for 24 hr prior to transferring mycelium to drug-free MYS medium measured after 6 hr. The test is classed as functional.
Test [17] relates to Botrytis cinerea. Briefly: Inhibition of respiratory activity in Botryotinia fuckeliana mycelium assessed as decrease in rate of oxygen consumption at 20 uM by Clark-type oxygen electrode recording analysis in presence of succinate (reference value: 0%). The test is classed as functional.
Test [18] has as its system Botrytis cinerea. The experiment in a line: Inhibition of respiratory activity in Botryotinia fuckeliana mycelium assessed as decrease in rate of oxygen consumption at 20 uM by Clark-type oxygen electrode recording analysis in presence of glucose and 2 mM mitochondrial alternative oxidase inhibitor, SHAM (reference value: 0%). The test is classed as functional.
The subject of test [19] is Botrytis cinerea. Briefly: Inhibition of respiratory activity in Botryotinia fuckeliana mycelium assessed as decrease in rate of oxygen consumption at 20 uM by Clark-type oxygen electrode recording analysis in presence of succinate and 2 mM mitochondrial alternative oxidase inhibitor, SHAM (reference value: 0%). The test is classed as functional.
The subject of test [20] is Botrytis cinerea. The experiment in a line: Inhibition of respiratory activity in Botryotinia fuckeliana mycelium assessed as decrease in rate of oxygen consumption at 20 uM by Clark-type oxygen electrode recording analysis in presence of glucose (reference value: 0%). The test is classed as functional.
In test [21] the test system is Botrytis cinerea. Briefly: Inhibition of respiratory activity in Botryotinia fuckeliana mycelium assessed as decrease in rate of oxygen consumption at 2 mM by Clark-type oxygen electrode recording analysis in presence of glucose (reference value: 0%). The test is classed as functional.
Test [22] relates to Botrytis cinerea. The experiment in a line: Inhibition of respiratory activity in Botryotinia fuckeliana mycelium assessed as decrease in rate of oxygen consumption at 2 mM by Clark-type oxygen electrode recording analysis in presence of succinate (reference value: 0%). The test is classed as functional.

`C=CCc1ccccc1O` [2-ALLYLPHENOL]: in the test on Botrytis cinerea [1], the “growth inhibition (GI)” value is “Active”. Moreover, the inhibition entry with Botrytis cinerea [2], in the test on Botrytis cinerea [3] and in the test on Botrytis cinerea [6] was “Active” throughout. Further, the EC50 is 25.4 µg/mL (≈ 189 µM) with Botrytis cinerea [4], 22.9 µg/mL in the test with Botrytis cinerea [5] and 7.1 µg/mL in the test on Botrytis cinerea [10]. The values for the inhibition at 100 µg/mL in the test with Botrytis cinerea [7], with Botrytis cinerea [11] and in the test with Botrytis cinerea [15] were 48%, 60% and 46%, respectively. The Activity in the test with Botrytis cinerea [8] is listed as 30%. Moreover, the “fold change (FC)” value was 1.7 in the test on Botrytis cinerea [9] and 0.9 in the test with Botrytis cinerea [16]. In addition, the “inhibition (INH)” value in the test on Botrytis cinerea [12] and in the test on Botrytis cinerea [13] was 100% in each case. Also, testing at 80 µg/mL with Botrytis cinerea [14] gave an inhibition of 70%.

For the compound `CCCCCC[C@H]1C(=O)O[C@H](C)[C@H](NC(=O)c2cccc(NC=O)c2O)C(=O)O[C@@H](C)[C@@H]1OC(=O)CC(C)C` [ANTIMYCIN A], the inhibition at 20 µM with Botrytis cinerea [17] was determined as 55%; with Botrytis cinerea [20] it was 77%. In addition, the “inhibition (INH)” value with Botrytis cinerea [18] and with Botrytis cinerea [19] was 100% each time.

In the case of `O=C(NO)c1ccccc1O` [SALICYLHYDROXAMIC ACID], the figures for the inhibition at 2000 µM in the test with Botrytis cinerea [21] and with Botrytis cinerea [22] were 45% and 32%, respectively.

The record behind these values is ChEMBL document CHEMBL3045109, “Inhibitory effect of bionic fungicide 2-allylphenol on Botrytis cinerea (Pers. ex Fr.) in vitro” (Pest Manag Sci, 2009).
